Results taken from patent US11242343B2 (Incyte Corporation, priority 2016, dated 2022).

Molecular target: HPK1 (Homo sapiens, UniProt Q92918)
Assay: HPK1 Kinase Binding Assay
Conditions: LanthaScreen tracer 222 binding, one hour incubation at 25° C.
Experimental: Example A. HPK1 Kinase Binding Assay
A stock solution of 1 mM test compound was prepared in DMSO. The compound plate was prepared by 3-fold and 11-point serial dilutions. 0.1 μL of the compound in DMSO was transferred from the compound plate to the white 384 well polystyrene plates. The assay buffer contained 50 mM HEPES, pH 7.5, 0.01% Tween-20, 5 mM MgCl2, 0.01% BSA, and 5 mM DTT. 5 μl of 4 nM active HPK1 (SignalChem M23-11G) prepared in the buffer was added to the plate. The enzyme concentration given was based on the given stock concentration reported by the vender. 5 μl of 18 nM tracer 222 (ThermoFisher PV6121) and 4 nM LanthaScreen Eu-Anti GST antibody (ThermoFisher PV5595) were added. After one hour incubation at 25° C., the plates were read on a PHERAstar FS plate reader (BMG Labtech). Ki values were determined.

Sequence of HPK1 (Q92918 whole entry, looked up): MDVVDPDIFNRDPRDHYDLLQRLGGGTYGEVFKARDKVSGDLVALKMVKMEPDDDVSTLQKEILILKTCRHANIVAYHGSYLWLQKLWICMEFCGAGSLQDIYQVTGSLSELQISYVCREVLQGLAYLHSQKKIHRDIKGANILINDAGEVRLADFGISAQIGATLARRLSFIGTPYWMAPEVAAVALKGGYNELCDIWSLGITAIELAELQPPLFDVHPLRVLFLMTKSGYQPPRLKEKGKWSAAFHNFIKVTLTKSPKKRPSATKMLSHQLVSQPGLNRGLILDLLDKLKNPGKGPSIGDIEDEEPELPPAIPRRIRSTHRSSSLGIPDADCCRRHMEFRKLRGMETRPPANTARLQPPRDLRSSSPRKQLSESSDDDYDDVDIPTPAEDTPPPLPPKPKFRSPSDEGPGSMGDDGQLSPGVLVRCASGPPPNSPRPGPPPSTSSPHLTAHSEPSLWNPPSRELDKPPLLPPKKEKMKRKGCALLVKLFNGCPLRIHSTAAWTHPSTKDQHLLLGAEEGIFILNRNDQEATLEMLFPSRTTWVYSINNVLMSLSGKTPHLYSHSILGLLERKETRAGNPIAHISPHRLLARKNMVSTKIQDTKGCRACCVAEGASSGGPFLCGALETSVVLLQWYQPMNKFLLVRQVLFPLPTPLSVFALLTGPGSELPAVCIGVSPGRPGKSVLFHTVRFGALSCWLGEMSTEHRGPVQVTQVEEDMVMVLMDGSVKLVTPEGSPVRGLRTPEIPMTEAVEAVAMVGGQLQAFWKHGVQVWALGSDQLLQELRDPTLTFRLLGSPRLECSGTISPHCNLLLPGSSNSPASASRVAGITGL

SMILES | Ki
CN1CCN(c2ccc(-c3n[nH]c4ccc(-c5cncc(-c6ncco6)c5)nc34)cc2)CC1 [Example 29, 2-(5-(3-(4-(4-Methylpiperazin-1-yl)phenyl)-1H-pyrazolo[4,3-b]pyridin-5-yl)pyridin-3-yl)oxazole] | ≤ 0.1 µM
CN1CCN(c2ccc(-c3n[nH]c4ccc(-c5cccc(C(N)=O)c5F)nc34)cc2)CC1 [Example 40, 2-Fluoro-3-(3-(4-(4-methylpiperazin-1-yl)phenyl)-1H-pyrazolo[4,3-b]pyridin-5-yl)benzamide] | ≤ 0.1 µM
CN1CCN(c2ccc(-c3n[nH]c4ccc(-c5cncc6oc(C(C)(C)C)nc56)nc34)cc2)CC1 [Example 33, 2-tert-Butyl-7-(3-(4-(4-methylpiperazin-1-yl)phenyl)-1H-pyrazolo[4,3-b]pyridin-5-yl)oxazolo[5,4-c]pyridine] | ≤ 0.1 µM
CN1CCN(c2ccc(-c3n[nH]c4cc(C#N)c(-c5c(F)ccc6c5CCNC6)nc34)cn2)CC1 [Example 76] | ≤ 0.1 µM
CN1CCN(c2ccc(-c3n[nH]c4ccc(-c5cccc6c5CCC6N)nc34)cc2)CC1 (stereo not shown) [Example 47, 4-(3-(4-(4-Methylpiperazin-1-yl)phenyl)-1H-pyrazolo[4,3-b]pyridin-5-yl)-2,3-dihydro-1H-inden-1-amine] | ≤ 0.1 µM
CN1CCN(c2ccc(-c3n[nH]c4ccc(-c5cccc(NS(C)(=O)=O)c5F)nc34)cc2)CC1 [Example 13, N-(2-Fluoro-3-(3-(4-(4-methylpiperazin-1-yl)phenyl)-1H-pyrazolo[4,3-b]pyridin-5-yl)phenyl)methanesulfonamide] | ≤ 0.1 µM
CNCc1cc(C)c(-c2nc3c(-c4ccc(C(=O)NC)nc4)n[nH]c3cc2C#N)c(F)c1 [Example 72, 5-(6-Cyano-5-(2-fluoro-6-methyl-4-((methylamino)methyl)phenyl)-1H-pyrazolo[4,3-b]pyridin-3-yl)-N-methylpicolinamide] | ≤ 0.1 µM
CNC(=O)c1ccc(-c2n[nH]c3cc(C#N)c(-c4c(C)cccc4F)nc23)cn1 [Example 65, 5-(6-Cyano-5-(2-fluoro-6-methylphenyl)-1H-pyrazolo[4,3-b]pyridin-3-yl)-N-methylpicolinamide] | ≤ 0.1 µM
Cc1cccc(F)c1-c1nc2c(-c3ccc(N4CCN(C)CC4)nc3)n[nH]c2cc1C#N [Example 62] | ≤ 0.1 µM
CN1CCN(c2ccc(-c3n[nH]c4ccc(-c5ccccc5C(F)(F)F)nc34)cc2)CC1 [Example 5, 3-(4-(4-Methylpiperazin-1-yl)phenyl)-5-(2-(trifluoromethyl)phenyl)-1H-pyrazolo[4,3-b]pyridine] | ≤ 0.1 µM
CN1CCN(c2ccc(-c3n[nH]c4ccc(-c5cnc6nccnc6c5)nc34)cc2)CC1 [Example 32, 7-(3-(4-(4-methylpiperazin-1-yl)phenyl)-1H-pyrazolo[4,3-b]pyridin-5-yl)pyrido[3,2-b]pyrazine] | ≤ 0.1 µM
CN1CCN(c2ccc(-c3n[nH]c4ccc(-c5cnc6c(c5)CC(=O)N6)nc34)cc2)CC1 [Example 27, 5-(3-(4-(4-Methylpiperazin-1-yl)phenyl)-1H-pyrazolo[4,3-b]pyridin-5-yl)-1H-pyrrolo[2,3-b]pyridin-2(3H)-one] | ≤ 0.1 µM
CNCc1cc(C)c(-c2nc3c(-c4cnc(N5CCN(C)CC5)nc4)n[nH]c3cc2C#N)c(F)c1 [Example 68, 5-(2-Fluoro-6-methyl-4-((methylamino)methyl)phenyl)-3-(2-(4-methylpiperazin-1-yl)pyrimidin-5-yl)-1H-pyrazolo[4,3-b]pyridine-6-carbonitrile] | ≤ 0.1 µM
